From US20230365542A1, “Selective Agonists of 5-HT2A Receptor and Methods of Use” (Yale University, priority 2020, published 2023)
Read-outs that look alike come from different tables or passages of the source.

Legend:
[1] = molecular target: T1, 5-HT2AR (Homo sapiens, UniProt P28223); test: Calcium flux assay (FLIPR, Fluo-4), 5-HT2AR stable cell line; type: cell-based; conditions: for 5-HT2AR Rmax ± S.E.M: value in parentheses
T1 construct: expressed in transfected cells; host or cells: Flp-In 293 T-Rex (tetracycline inducible)
T1 sequence (P28223 whole entry): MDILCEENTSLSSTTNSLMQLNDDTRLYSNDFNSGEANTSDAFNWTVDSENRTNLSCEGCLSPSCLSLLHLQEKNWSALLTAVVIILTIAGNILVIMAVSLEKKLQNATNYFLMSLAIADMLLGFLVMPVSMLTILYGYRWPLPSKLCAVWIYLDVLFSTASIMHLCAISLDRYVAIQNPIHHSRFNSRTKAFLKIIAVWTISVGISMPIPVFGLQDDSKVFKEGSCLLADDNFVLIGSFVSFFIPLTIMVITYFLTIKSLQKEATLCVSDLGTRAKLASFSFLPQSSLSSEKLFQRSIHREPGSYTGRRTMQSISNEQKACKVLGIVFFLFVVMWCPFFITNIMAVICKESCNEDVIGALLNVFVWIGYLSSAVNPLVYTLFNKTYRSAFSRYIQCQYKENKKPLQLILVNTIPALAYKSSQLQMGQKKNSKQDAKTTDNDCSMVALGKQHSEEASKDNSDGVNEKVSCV
Experimental: Stable cell lines for 5-HT2AR, 5-HT2BR and 5-HT2CR generated using the Flp-In 293 T-Rex Tetracycline inducible system (Invitrogen). Tetracycline-induced cells were seeded in 384-well poly-L-lysine plates at a density of 10,000 cells/well in DMEM containing 1% dialyzed FBS at least 16-24 hr before the calcium flux assay. On the day of the assay, the cells were incubated (20 ul/well) for 1 hr at 37° C. with Fluo-4 Direct dye (Invitrogen) reconstituted in FLIPR buffer (1×HBSS, 2.5 mM probenecid, and 20 mM HEPES, pH 7.4). After dye loading, cells were placed in a FLIPR^TETRA fluorescence imaging plate reader (Molecular Dynamics). Drug dilutions were prepared at 3× final concentration in drug buffer (1×HBSS, 20 mM HEPES, 0.1% BSA, 0.01% ascorbic acid, pH 7.4) and aliquoted into 384-well plates and placed in the FLIPR^TETRA for drug stimulation. The fluidics module and plate reader of the FLIPR^TETRA were programmed to read baseline fluorescence for 10s (1 read/s), then 10 ul of drug/well was added and read for 5 min (1 read/s). Fluorescence in each well was normalized to the average of the first 10 reads (i.e., baseline fluorescence). Then, the maximum-fold increase, which occurred within the first 60 s after drug addition, was determined and fold over baseline was plotted as a function of drug concentration. Data were normalized to % 5-HT stimulation and analyzed using “log(agonist) vs. response” in GraphPad Prism 9.0.

[2] = molecular target: T2, 5-HT2BR (Homo sapiens, UniProt P41595); test: Calcium flux assay (FLIPR, Fluo-4), 5-HT2BR stable cell line; type: cell-based; conditions: for 5-HT2BR Rmax ± S.E.M: value in parentheses
T2 construct: expressed in transfected cells; host or cells: Flp-In 293 T-Rex (tetracycline inducible)
T2 sequence (P41595 whole entry): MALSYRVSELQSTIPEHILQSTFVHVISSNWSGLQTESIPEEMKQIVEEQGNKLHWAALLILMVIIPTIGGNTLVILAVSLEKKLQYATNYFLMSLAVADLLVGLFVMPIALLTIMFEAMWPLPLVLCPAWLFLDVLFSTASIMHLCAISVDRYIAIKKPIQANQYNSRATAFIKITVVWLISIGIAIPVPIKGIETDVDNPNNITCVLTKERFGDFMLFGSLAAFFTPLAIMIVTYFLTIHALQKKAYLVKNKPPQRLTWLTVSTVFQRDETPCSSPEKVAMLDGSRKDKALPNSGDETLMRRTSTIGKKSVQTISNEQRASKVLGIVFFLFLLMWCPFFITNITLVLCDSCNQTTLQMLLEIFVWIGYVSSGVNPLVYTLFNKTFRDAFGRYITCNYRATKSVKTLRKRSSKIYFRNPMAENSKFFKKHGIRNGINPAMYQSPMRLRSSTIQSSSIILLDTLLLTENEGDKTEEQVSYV
Experimental: Stable cell lines for 5-HT2AR, 5-HT2BR and 5-HT2CR generated using the Flp-In 293 T-Rex Tetracycline inducible system (Invitrogen). Tetracycline-induced cells were seeded in 384-well poly-L-lysine plates at a density of 10,000 cells/well in DMEM containing 1% dialyzed FBS at least 16-24 hr before the calcium flux assay. On the day of the assay, the cells were incubated (20 ul/well) for 1 hr at 37° C. with Fluo-4 Direct dye (Invitrogen) reconstituted in FLIPR buffer (1×HBSS, 2.5 mM probenecid, and 20 mM HEPES, pH 7.4). After dye loading, cells were placed in a FLIPR^TETRA fluorescence imaging plate reader ([…]). Drug dilutions were prepared at 3× final concentration in drug buffer (1×HBSS, 20 mM HEPES, 0.1% BSA, 0.01% ascorbic acid, pH 7.4) and aliquoted into 384-well plates and placed in the FLIPR^TETRA for drug stimulation. The fluidics module and plate reader of the FLIPR^TETRA were programmed to read baseline fluorescence for 10s (1 read/s), then 10 ul of drug/well was added and read for 5 min (1 read/s). Fluorescence in each well was normalized to the average of the first 10 reads (i.e., baseline fluorescence). Then, the maximum-fold increase, which occurred within the first 60 s after drug addition, was determined and fold over baseline was plotted as a function of drug concentration. Data were normalized to % 5-HT stimulation and analyzed using “log(agonist) vs. response” in GraphPad Prism 9.0.

[3] = molecular target: T2, 5-HT2BR; test: 5-HT2BR binding affinity (Ki), Table 8
[4] = molecular target: T3, 5-HT2CR (Homo sapiens, UniProt P28335); test: 5-HT2CR binding affinity (Ki), Table 8; conditions: read-out: 5-HT2CR Ki
T3 sequence (P28335 33-458): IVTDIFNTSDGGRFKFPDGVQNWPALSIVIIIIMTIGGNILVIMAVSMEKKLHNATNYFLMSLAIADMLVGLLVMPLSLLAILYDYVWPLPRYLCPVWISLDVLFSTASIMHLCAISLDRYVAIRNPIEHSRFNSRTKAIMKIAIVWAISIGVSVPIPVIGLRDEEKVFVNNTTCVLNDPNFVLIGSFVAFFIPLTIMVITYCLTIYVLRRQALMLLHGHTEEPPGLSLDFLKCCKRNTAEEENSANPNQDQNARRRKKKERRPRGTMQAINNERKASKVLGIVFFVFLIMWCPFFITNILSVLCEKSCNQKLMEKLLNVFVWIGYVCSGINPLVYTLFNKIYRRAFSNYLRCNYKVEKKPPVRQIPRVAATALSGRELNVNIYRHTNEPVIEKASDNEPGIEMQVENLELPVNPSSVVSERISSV

[5] = molecular target: T1, 5-HT2AR; test: 5-HT2AR binding affinity (Ki), Table 8
[6] = bracketed value below Ki, read-out: 5-HT2BR pKi ± S.E.M (converted)
[7] = bracketed value below Ki, read-out: 5-HT2AR pKi ± S.E.M (converted)
[8] = bracketed value below EC50, read-out: 5-HT2AR pEC50 ± S.E.M (converted)
[9] = bracketed value below EC50, read-out: 5-HT2BR pEC50 ± S.E.M (converted)

| SMILES | 5-HT2AR EC50 [1] | EC50 ([2]; read-out: 5-HT2BR EC50) [nM] | 5-HT2BR Rmax ± S.E.M [2] | Ki [3, 6] [nM] | Ki ([3]; read-out: 5-HT2BR Ki) [nM] | Ki [4] [nM] | Ki [5, 7] [nM] | Ki ([5]; read-out: 5-HT2AR Ki) [nM] | EC50 ([1]; read-out: 5-HT2AR EC50) [nM] | 5-HT2AR Rmax ± S.E.M [1] | 5-HT2BR EC50 [2] | EC50 [1, 8] [nM] | EC50 [2, 9] [nM] |
| --- | --- | --- | --- | --- | --- | --- | --- | --- | --- | --- | --- | --- | --- |
| C[C@@H]1C=C(c2c[nH]c3ncccc23)CN(CCCc2cnn(C)c2)C1 [compound 43, (R)-3-(5-methyl-1-(3-(1-methyl-1H-pyrazol-4-yl)propyl)-1,2,5,6-tetrahydropyridin-3-yl)-1H-pyrrolo[2,3-b]pyridine] | antagonist | 790 | (39.5% | 692 | 700 | > 10000 | 661 | 670 |  |  |  |  |  |
| C[C@@H]1C=C(c2cncc(Cl)c2)CN(CCC2CCCC2)C1 [Compound 19, 5′-chloro-1-(2-cyclopentylethyl)-5-methyl-1,2,5,6-tetrahydro-3,3′-bipyridine] |  |  |  |  | 570 | > 10000 |  | > 10000 | 4310 | (34.9% | antagonist |  |  |
| Cc1cncc(C2=CC(C)CN(CC3(O)COC3)C2)c1 (racemic) [Compound 4, 3-((5,5′-Dimethyl-5,6-dihydro-[3,3′-bipyridin]-1(2H)-yl)methyl)oxetan-3-ol] |  |  |  |  | 670 |  |  |  |  |  | antagonist |  |  |
| CCCN1CC(c2c[nH]c3ncccc23)=C[C@H](C)C1 [Compound 24, 3-(5-methyl-1-propyl-1,2,5,6-tetrahydropyridin-3-yl)-1H-pyrrolo[2,3-b]pyridine] |  |  |  |  | 1670 | > 10000 |  | > 10000 | 860 | (14.8% | antagonist | 871 |  |
| C[C@H]1C=C(c2c[nH]c3ncccc23)CN(C2COC2)C1 [compound 28, (S)-3-(5-methyl-1-(oxetan-3-yl)-1,2,5,6-tetrahydropyridin-3-yl)-1H-pyrrolo[2,3-b]pyridine] |  | 5240 | (48.1% | 9770 | 9890 | > 10000 |  | > 10000 | > 10000 |  |  |  |  |
| C[C@@H]1C=C(c2cncc(Cl)c2)CN(C)C1 (stereo in doubt) [Compound 17, 5′-chloro-1,5-dimethyl-1,2,5,6-tetrahydro-3,3′-bipyridine] |  |  | (42.1% | 30.2 |  | > 10000 |  | 2100 |  | (14.9% |  | 347 | 26.9 |
| CC1C=C(c2cnn(C)c2)CN(CC2(C)COC2)C1 (racemic) [Compound 1, 3-Methyl-5-(1-methyl-1H-pyrazol-4-yl)-1-((3-methyloxetan-3-yl)methyl)-1,2,3,6-tetrahydropyridine] |  | 1940 | 48.9% |  | 3880 |  |  |  |  |  |  |  |  |
| CCCCN1CC(c2cncc(Cl)c2)=C[C@@H](C)C1 [Compound 11, 1-butyl-5′-chloro-5-methyl-1,2,5,6-tetrahydro-3,3′-bipyridine] |  |  |  | 372 |  | > 10000 |  | > 10000 | 4240 | (25.0% | antagonist |  |  |
| Cc1cncc(C2=C[C@H](C)CN(CC3(O)COC3)C2)c1 (stereo in doubt) [Compound 6, 3-((5,5′-Dimethyl-5,6-dihydro-[3,3′-bipyridin]-1(2H)-yl)methyl)oxetan-3-ol] |  | 120 | (16.0% | 245 |  | > 10000 |  | > 10000 |  |  |  |  | 115 |
| C[C@@H]1C=C(c2c[nH]c3ncccc23)CN(CCCN(C)C)C1 [compound 31, (R)-N,N-dimethyl-3-(3-methyl-5-(1H-pyrrolo[2,3-b]pyridin-3-yl)-3,6-dihydropyrridin-1(2H)-yl)propan-1-amine] | antagonist |  |  |  | > 10000 | > 10000 |  | > 10000 |  |  | antagonist |  |  |
| Cc1cncc(C2=C[C@@H](C)CN(CC3(O)COC3)C2)c1 [Compound 5, 3-((5,5′-Dimethyl-5,6-dihydro-[3,3′-bipyridin]-1(2H)-yl)methyl)oxetan-3-ol] |  |  |  | 3240 |  | > 10000 |  | > 10000 |  |  | antagonist |  |  |
| C[C@H]1C=C(c2c[nH]c3ncccc23)CN(CCCN(C)C)C1 [compound 32, (S)-N,N-dimethyl-3-(3-methyl-5-(1H-pyrrolo[2,3-b]pyridin-3-yl)-3,6-dihydropyridin-1(2H)-yl)propan-1-amine] | antagonist |  |  |  | 9720 | > 10000 |  | > 10000 |  |  | antagonist |  |  |
| C[C@H]1C=C(c2c[nH]c3ncccc23)CN(Cc2cnco2)C1 [compound 48, (S)-5-((3-methyl-5-(1H-pyrrolo[2,3-b]pyridin-3-yl)-3,6-dihydropyridin-1(2H)-yl)methyl)oxazole] | antagonist | 8860 | (48.8% |  | 8010 | > 10000 |  | > 10000 |  |  |  |  |  |
| C[C@H]1C=C(c2cncc(Cl)c2)CN(CCC2CCCC2)C1 [Compound 20, 5′-chloro-1-(2-cyclopentylethyl)-5-methyl-1,2,5,6-tetrahydro-3,3′-bipyridine] |  | 85 | (66.2% | 10.7 |  | > 10000 |  | 4360 | 540 | (49.1% |  |  |  |
| C[C@H]1C=C(c2cncc(Cl)c2)CN(C)C1 (stereo in doubt) [Compound 18, 5′-chloro-1,5-dimethyl-1,2,5,6-tetrahydro-3,3′-bipyridine] |  |  |  | 138 |  | > 10000 | 3160 | 3210 | 870 | (13.7% | antagonist |  |  |
| C[C@H]1C=C(c2cncc(Cl)c2)CN(CC2(O)COC2)C1 [Compound 8, 3-((5′-Chloro-5-methyl-5,6-dihydro-[3,3′-bipyridin]-1(2H)-yl)methyl)oxetan-3-ol] |  |  | (20.4% | 79.4 |  | > 10000 |  | > 10000 |  |  |  |  | 126 |
| C[C@H]1C=C(c2c[nH]c3ncccc23)CN(C2CC2)C1 [compound 30, (S)-3-(1-cyclopropyl-5-methyl-1,2,5,6-tetrahydropyridin-3-yl)-1H-pyrrolo[2,3-b]pyridine] |  | 4360 | (58.3% |  | 2540 | > 10000 |  | > 10000 | 3540 | (29.1% |  |  |  |
| CCCCN1CC(c2cncc(C)c2)=C[C@@H](C)C1 [Compound 13, 1-Butyl-5,5′-dimethyl-1,2,5,6-tetrahydro-3,3′-bipyridine] |  |  |  |  | 580 | > 10000 |  | > 10000 | > 10000 |  | antagonist |  |  |
| C[C@H]1C=C(c2c[nH]c3ncccc23)CNC1 [compound 39, (S)-3-(5-methyl-1,2,5,6-tetrahydropyridin-3-yl)-1H-pyrrolo[2,3-b]pyridine] |  | 1230 | (26.8% |  | 1810 |  |  |  | 520 | (14.0% |  | 513 |  |
| CCCCCN1CC(c2cnn(C)c2)=CC(C)C1 (racemic) [Compound 3, 3-Methyl-5-(1-methyl-1H-pyrazol-4-yl)-1-pentyl-1,2,3,6-tetrahydropyridine] |  |  |  |  | 1480 |  |  |  | > 10000 |  | antagonist |  |  |
| CCc1cncn1CCN1CC(c2cccn2C)=CC(C)C1 (racemic) [Compound 2, 1-(2-(5-Ethyl-1H-imidazol-1-yl)ethyl)-3-methyl-5-(1-methyl-1H-pyrrol-2-yl)-1,2,3,6-tetrahydropyridine] | antagonist | 2980 | 56.3% |  | 2670 |  |  | 6230 |  |  |  |  |  |
